A word on the IC50: it is the concentration that gives 50% inhibition.

Where two headings read alike, the source gives them in different places.

IC50 data for 29 compounds are collected here from patent US10752609B2, “GSK-3 inhibitors” (priority 2016, dated 2020).

The target in one assay is GSK3β (Homo sapiens, UniProt P49841). Nature of the assay: GSK3β kinase assay (Caliper LabChip3000 mobility shift, fluoresceinated peptide substrate). Format: biochemical.
The subject of the next assay is pTau. Nature of the assay: pTau assay (no method described). Format: cell-based.
A further assay concerns the target GSK3α (Homo sapiens, UniProt P49840). Nature of the assay: GSK3α kinase assay (Caliper LabChip3000 mobility shift, fluoresceinated peptide substrate).
Setting [1] is: 250 pM enzyme, 20 uM ATP, 1.5 uM peptide, 20 hours room temperature, first value of cell GSK3β/GSK3α, read-out: GSK3β (nM), IC50.

Sequence of GSK3α (P49840 whole entry, species assumed): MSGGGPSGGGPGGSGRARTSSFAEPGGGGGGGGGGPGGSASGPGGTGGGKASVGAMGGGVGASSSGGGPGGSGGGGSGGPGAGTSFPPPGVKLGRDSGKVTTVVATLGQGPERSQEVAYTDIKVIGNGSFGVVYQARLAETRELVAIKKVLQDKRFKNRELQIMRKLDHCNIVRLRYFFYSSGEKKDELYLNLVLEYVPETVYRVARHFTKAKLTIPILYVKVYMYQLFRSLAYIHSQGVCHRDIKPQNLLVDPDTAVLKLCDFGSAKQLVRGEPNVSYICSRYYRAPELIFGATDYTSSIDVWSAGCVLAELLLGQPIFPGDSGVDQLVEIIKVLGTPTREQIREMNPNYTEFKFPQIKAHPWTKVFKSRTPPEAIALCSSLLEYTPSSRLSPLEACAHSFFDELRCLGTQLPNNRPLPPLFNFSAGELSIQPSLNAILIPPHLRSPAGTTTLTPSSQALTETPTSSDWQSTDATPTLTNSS
Sequence of GSK3β (P49841 whole entry, species assumed): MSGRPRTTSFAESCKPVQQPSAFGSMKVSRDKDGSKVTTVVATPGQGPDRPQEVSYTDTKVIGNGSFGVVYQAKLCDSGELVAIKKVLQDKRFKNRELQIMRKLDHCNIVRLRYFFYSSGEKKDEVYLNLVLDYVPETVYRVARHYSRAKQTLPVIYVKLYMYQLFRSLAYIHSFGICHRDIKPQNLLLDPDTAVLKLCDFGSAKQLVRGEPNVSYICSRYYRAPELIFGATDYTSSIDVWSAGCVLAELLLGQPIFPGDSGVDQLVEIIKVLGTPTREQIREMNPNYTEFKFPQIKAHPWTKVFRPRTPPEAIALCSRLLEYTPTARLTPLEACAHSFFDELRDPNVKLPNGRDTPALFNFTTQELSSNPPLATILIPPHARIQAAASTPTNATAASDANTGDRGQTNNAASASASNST
Experimental for GSK3α: The kinase assay was performed in V-bottom 384-well plates. […] The reaction was incubated at room temperature for 20 hours and terminated by adding 45 μl of 35 mM EDTA to each sample. The reaction mixture was analyzed on the Caliper LabChip3000 (Caliper, Hopkinton, Mass.) by electrophoretic separation of the unphosphorylated substrate and phosphorylated product. […] Compounds were dissolved at 10 mM in dimethylsulfoxide (DMSO) and evaluated at eleven concentrations. IC50 values were derived by non-linear regression analysis.

With `O=C(Nc1cnccc1OCC(F)(F)F)c1ccnc(NCc2ccccc2)n1` [Example 128, 2-(Benzylamino)-N-(4-(2,2,2-trifluoroethoxy)pyridin-3-yl)pyrimidine-4-carboxamide], the half-inhibitory concentration (IC50) at GSK3β (setting [1]) was 1.2 nM; in the assay with pTau, 210 nM; at GSK3α it was 1.3 nM.

As to `O=C(Nc1cnccc1OCC(F)(F)F)c1ccnc(NCc2ccccc2F)n1` [Example 129, 2-((2-Fluorobenzyl)amino)-N-(4-(2,2,2-trifluoroethoxy)pyridin-3-yl)pyrimidine-4-carboxamide], the IC50 at GSK3β (setting [1]) came out at 1.5 nM; with pTau, 180 nM; on GSK3α, 1.8 nM.

As to `O=C(Nc1cnccc1OCC(F)(F)F)c1ccnc(NC2CC2)n1` [Example 130, 2-(Cyclopropylamino)-N-(4-(2,2,2-trifluoroethoxy)pyridin-3-yl)pyrimidine-4-carboxamide], the values for the IC50 on GSK3β (setting [1]), in the assay on pTau and on GSK3α were 1.6 nM, 46 nM and 1.5 nM, respectively.

`O=C(Nc1cnccc1OCC(F)(F)F)c1ccnc(NCc2ccc(F)cc2)n1` [Example 131, 2-((4-Fluorobenzyl)amino)-N-(4-(2,2,2-trifluoroethoxy)pyridin-3-yl)pyrimidine-4-carboxamide]: the IC50 on GSK3β (setting [1]) amounted to 1.8 nM; with pTau, 160 nM; at GSK3α, 2.2 nM.

With `O=C(Nc1cnccc1OCC(F)(F)F)c1ccnc(NCc2ccc3c(c2)OCO3)n1` [Example 132, 2-((Benzo[d][1,3]dioxol-5-ylmethyl)amino)-N-(4-(2,2,2-trifluoroethoxy)pyridin-3-yl)pyrimidine-4-carboxamide], the results for the IC50 on GSK3β, in the assay with pTau and at GSK3α were 1.9 nM, 220 nM and 2.2 nM, respectively.

With `CC1CC(Nc2nccc(C(=O)Nc3cnccc3OCC(F)(F)F)n2)CC(C)O1` (stereo not drawn) [Example 133, 2-((2,6-Dimethyltetrahydro-2H-pyran-4-yl)amino)-N-(4-(2,2,2-trifluoroethoxy)pyridin-3-yl)pyrimidine-4-carboxamide], the IC50 at GSK3β (setting [1]) is 1.9 nM; with pTau, 380 nM; on GSK3α it was 38 nM.

Turning to `O=C(Nc1cnccc1OCC(F)(F)F)c1ccnc(NCc2ccc(C(F)(F)F)cc2)n1` [Example 134, N-(4-(2,2,2-Trifluoroethoxy)pyridin-3-yl)-2-((4-(trifluoromethyl)benzyl)amino)pyrimidine-4-carboxamide], the IC50 at GSK3β (setting [1]) was determined as 2.8 nM; in the assay on pTau, 310 nM; at GSK3α it was 5.4 nM.

For the compound `CNc1nccc(C(=O)Nc2cnccc2OCC(F)(F)F)n1` [Example 135, 2-(Methylamino)-N-(4-(2,2,2-trifluoroethoxy)pyridin-3-yl)pyrimidine-4-carboxamide], the IC50 at GSK3β (setting [1]) was 3.6 nM; in the assay with pTau, 400 nM; on GSK3α, 14 nM.

For the compound `O=C(Nc1cnccc1OCC(F)(F)F)c1ccnc(NCc2ccccc2C(F)(F)F)n1` [Example 137, N-(4-(2,2,2-Trifluoroethoxy)pyridin-3-yl)-2-((2-(trifluoromethyl)benzyl)amino)pyrimidine-4-carboxamide], the figures for the IC50 on GSK3β (setting [1]), with pTau and at GSK3α were 4.1 nM, 350 nM and 2.3 nM, respectively.

Consider `CC(Nc1nccc(C(=O)Nc2cnccc2OCC(F)(F)F)n1)c1ccccc1` (stereo not drawn) [Example 138, 2-((1-Phenylethyl)amino)-N-(4-(2,2,2-trifluoroethoxy)pyridin-3-yl)pyrimidine-4-carboxamide], for which the values for the IC50 on GSK3β (setting [1]), in the assay on pTau and on GSK3α were 6.1 nM, 430 nM and 3.2 nM, respectively.

As to `O=C(Nc1cnccc1OCC(F)(F)F)c1ccnc(NCc2cccc(C(F)(F)F)c2)n1` [Example 139, N-(4-(2,2,2-Trifluoroethoxy)pyridin-3-yl)-2-((3-(trifluoromethyl)benzyl)amino)pyrimidine-4-carboxamide], the IC50 at GSK3β (setting [1]) stood at 6.3 nM; with pTau, 570 nM; on GSK3α, 5.4 nM.

Consider `O=C(Nc1cnccc1OCC(F)(F)F)c1ccnc(NCc2cccc(F)c2)n1` [Example 140, 2-((3-Fluorobenzyl)amino)-N-(4-(2,2,2-trifluoroethoxy)pyridin-3-yl)pyrimidine-4-carboxamide], for which the IC50 on GSK3β (setting [1]) was found to be 1.3 nM; in the assay with pTau it was 280 nM; at GSK3α, 1.6 nM.

With `O=C(Nc1cnccc1OCC(F)(F)F)c1ccnc(NCC(F)(F)F)n1` [Example 141, N-(4-(2,2,2-Trifluoroethoxy)pyridin-3-yl)-2-((2,2,2-trifluoroethyl)amino)pyrimidine-4-carboxamide], the IC50 at GSK3β (setting [1]) was 7.8 nM; in the assay with pTau, 300 nM; on GSK3α, 8 nM.

`CN1CCC(Nc2nccc(C(=O)Nc3cnccc3OCC(F)(F)F)n2)CC1` [Example 142, 2-((1-Methylpiperidin-4-yl)amino)-N-(4-(2,2,2-trifluoroethoxy)pyridin-3-yl)pyrimidine-4-carboxamide]: the IC50 came out at 14 nM at GSK3β, 1000 nM in the assay with pTau and 12 nM at GSK3α.

Regarding `CC(Nc1nccc(C(=O)Nc2cnccc2OCC(F)(F)F)n1)C12CC3CC(CC(C3)C1)C2` (stereo not drawn) [Example 143, 2-((1-(Adamantan-1-yl)ethyl)amino)-N-(4-(2,2,2-trifluoroethoxy)pyridin-3-yl)pyrimidine-4-carboxamide], the IC50 came to 33 nM at GSK3β (setting [1]), 4900 nM with pTau and 73 nM at GSK3α.

`O=C(Nc1cnccc1OCC(F)(F)F)c1ccnc(NCc2cc(C(F)(F)F)cc(C(F)(F)F)c2)n1` [Example 144, 2-((3,5-Bis(trifluoromethyl)benzyl)amino)-N-(4-(2,2,2-trifluoroethoxy)pyridin-3-yl)pyrimidine-4-carboxamide]: the IC50 worked out at 210 nM at GSK3β (setting [1]), 10000 nM in the assay with pTau and 200 nM on GSK3α.

For the compound `CN1C(C)(C)CC(Nc2nccc(C(=O)Nc3cnccc3OCC(F)(F)F)n2)CC1(C)C` [Example 145, 2-((1,2,2,6,6-Pentamethylpiperidin-4-yl)amino)-N-(4-(2,2,2-trifluoroethoxy)pyridin-3-yl)pyrimidine-4-carboxamide], the IC50 came to 250 nM on GSK3β (setting [1]), 10000 nM in the assay on pTau and 460 nM at GSK3α.

Regarding `O=C(Nc1cnccc1-c1ccccc1)c1ccnc(NCC2CC2)n1` [Example 147, 2-((Cyclopropylmethyl)amino)-N-(4-phenylpyridin-3-yl)pyrimidine-4-carboxamide], the IC50 on GSK3β (setting [1]) was 0.14 nM; in the assay on pTau, 20 nM; at GSK3α, 0.14 nM.

Turning to `O=C(Nc1cnccc1-c1ccc(F)cc1)c1ccnc(NC2CCCC2)n1` [Example 148, 2-(Cyclopentylamino)-N-(4-(4-fluorophenyl)pyridin-3-yl)pyrimidine-4-carboxamide], the IC50 was determined as 0.35 nM on GSK3β (setting [1]), 51 nM with pTau and 0.3 nM at GSK3α.

With `O=C(Nc1cnccc1-c1ccc(F)cc1F)c1ccnc(Nc2ccc3ccccc3c2)n1` [Example 149, N-(4-(2,4-Difluorophenyl)pyridin-3-yl)-2-(naphthalen-2-ylamino)pyrimidine-4-carboxamide], the IC50 on GSK3β (setting [1]) came out at 0.65 nM; in the assay on pTau it was 110 nM; at GSK3α, 0.36 nM.

Take `O=C(Nc1cnccc1-c1ccc(F)cc1)c1ccnc(NC2CCCCC2)n1` [Example 150, 2-(Cyclohexylamino)-N-(4-(4-fluorophenyl)pyridin-3-yl)pyrimidine-4-carboxamide]: the figures for the IC50 at GSK3β (setting [1]), in the assay on pTau and at GSK3α were 0.66 nM, 120 nM and 0.57 nM, respectively.

As to `O=C(Nc1cnccc1-c1ccc(F)cc1F)c1ccnc(Nc2ccccc2)n1` [Example 151, N-(4-(2,4-Difluorophenyl)pyridin-3-yl)-2-(phenylamino)pyrimidine-4-carboxamide], the IC50 was 0.67 nM on GSK3β (setting [1]), 44 nM in the assay with pTau and 0.32 nM on GSK3α.

Take `O=C(Nc1cnccc1-c1ccc(F)cc1)c1ccnc(NC2CC2)n1` [Example 153, 2-(Cyclopropylamino)-N-(4-(4-fluorophenyl)pyridin-3-yl)pyrimidine-4-carboxamide]: the concentration for half-maximal inhibition (IC50) on GSK3β (setting [1]) was 0.82 nM; in the assay with pTau, 55 nM; at GSK3α it was 0.65 nM.

Consider `O=C(Nc1cnccc1-c1ccccc1F)c1ccnc(Nc2ccc3ccccc3c2)n1` [Example 154, N-(4-(2-Fluorophenyl)pyridin-3-yl)-2-(naphthalen-2-ylamino)pyrimidine-4-carboxamide], for which the results for the IC50 at GSK3β (setting [1]), in the assay on pTau and at GSK3α were 1.4 nM, 100 nM and 0.7 nM, respectively.

Take `O=C(Nc1cnccc1-c1ccc(F)cc1F)c1ccnc(Nc2ccc(F)cc2F)n1` [Example 155]: the IC50 on GSK3β (setting [1]) is 1.5 nM; in the assay on pTau, 10000 nM; on GSK3α it was 0.97 nM.

`O=C(Nc1cnccc1-c1ccccc1)c1ccnc(NC2CCCCC2)n1` [Example 156, 2-(Cyclohexylamino)-N-(4-phenylpyridin-3-yl)pyrimidine-4-carboxamide]: the IC50 at GSK3β is 2.1 nM; in the assay on pTau, 350 nM; at GSK3α, 1.3 nM.

As for `CC(Nc1nccc(C(=O)Nc2cnccc2-c2ccc(F)cc2)n1)C(C)(C)C` (stereo not drawn) [Example 157, 2-((3,3-Dimethylbutan-2-yl)amino)-N-(4-(4-fluorophenyl)pyridin-3-yl)pyrimidine-4-carboxamide], the IC50 on GSK3β (setting [1]) was determined as 2.2 nM; with pTau, 410 nM; at GSK3α, 0.72 nM.

On to `CNc1nccc(C(=O)Nc2cnccc2-c2ccc(F)cc2F)n1` [Example 158, N-(4-(2,4-Difluorophenyl)pyridin-3-yl)-2-(methylamino)pyrimidine-4-carboxamide], for which the IC50 was determined as 2.4 nM at GSK3β (setting [1]), 96 nM in the assay with pTau and 1.9 nM at GSK3α.

As for `O=C(Nc1cnccc1-c1ccccc1)c1ccnc(Nc2cnn(-c3cc(F)ccc3F)c2)n1` [Example 159, 2-((1-(2,5-Difluorophenyl)-1H-pyrazol-4-yl)amino)-N-(4-phenylpyridin-3-yl)pyrimidine-4-carboxamide], the values for the IC50 on GSK3β (setting [1]), in the assay on pTau and at GSK3α were 7.2 nM, 390 nM and 1.9 nM, respectively.
